According to US20250134853A1, “COMPOUNDS AND METHODS FOR USING GALLOYLATED POLYPHENOLS TO TREAT DISEASES MEDIATED BY THIOL ISOMERASES” (Beth Israel Deaconess Medical Center, Inc., priority 2023, published 2025):
“Also recorded” adds a separate entry of the source.

How the values were obtained:
SARS-CoV-2 M^pro [1] = biological target: T1, SARS-CoV-2 M^pro (Severe acute respiratory syndrome coronavirus 2, UniProt P0DTD1); conditions: literature values (Table 2); read-out: SARS-CoV-2 M^pro inhibition; cited from earlier work
[2] = test system: recombinant PDI, ERp57, and ERp5; experiment: Di-eosin-GSSG assay, thiol isomerases at 20 μM compound; format: biochemical; conditions: 15 minute incubation
SARS-CoV-2 M^pro [3] = biological target: T1, SARS-CoV-2 M^pro; conditions: cited from earlier work
[4] = test system: PDI domain fragments (a, a′, ab, abb′, b′xa′); experiment: Di-eosin-GSSG assay on isolated PDI domain fragments; format: biochemical; conditions: 20 μM
Description: (§1) Di-eosin-GSSG disulfide reductase assay. The probe di-eosin glutathione disulfide, di-eosin-GSSG, was prepared by incubating 100 μM of GSSG with 1 mM of eosin isothiocyanate in 100 mM potassium phosphate containing 2 mM EDTA (pH 7.4), at 25° C. overnight in the dark. The mixture was passed down a PD-10 column and different fractions were collected. A fold change of fluorescence (Ex: 520 nm, Em: 550 nm) was calculated using samples subjected to either vehicle or 20 mM of DTT. Any fraction with a fold change >5 was kept. Using a stock of 10 mM eosin isothiocyanate, a standard curve was generated and concentration of samples were determined accordingly. Di-eosin-GSSG cleavage of purified thiol isomerases and PDI domains was monitored in a 96-well fluorescence plate format. PDI, CGXC-PDI variants, ERp5, ERp57, ERp46 and PDI domains were assayed at 50 nM in the presence or absence of the indicated small molecules. The assay included a thiol isomerase assay buffer (39 mM KH2PO4, 61 mM K2HPO4, 2 mM EDTA, 5 M DTT, pH 7.4) and 150 nM of the di-eosin-GSSG probe. The increase in fluorescence was determined for 60 min by excitation at 520 nm and emission at 550 nm in a Synergy Biotek 4. The reduction of 150 nM di-eosin-GSSG by 5 μM DTT in the presence or absence of mentioned small molecule or proteins served as a negative control.

PDI [5] = biological target: T2, PDI (Homo sapiens, UniProt P07237); experiment: Insulin reductase assay; format: biochemical; conditions: 20 μM
T2 construct: FLAG; made in house; host or cells: Escherichia coli Origami B (DE3)
Description: Insulin reductase assay. Insulin was prepared by mixing 12.5 mg/mL insulin in 50 mM Tris-HCl, pH 8. 1 M HCl was carefully added to drop the pH to 2.0 for solution clarification. Once the solution clarifies, 1 M NaOH was added to rapidly adjust the pH back to 8.0. The solution was then adjusted to 1.5 mM (10 mg/mL) with 50 mM Tris-HCl, aliquoted and stored in −20° C. until use. 2× concentrations of thiol isomerases were prepared (final concentrations as indicated in each assay) and mixed with 1.2 mM DTT (final 0.3 mM) and 0.4 mM insulin (final 0.1 mM) using a thiol isomerase activity assay buffer. Insulin precipitation from enzyme-mediated reduction was assayed in 96-well clear bottom plates at 650 nm absorption.

PDI [6] = biological target: T2, PDI; experiment: Di-eosin-GSSG disulfide reductase assay, PDI; format: biochemical; conditions: Table 1; IC50 curves on PDI activity (FIGS. 13B-E, 17A-E); read-out: Relative PDI inhibition
Description: as §1

platelets = conditions: cited from earlier work
SARS-CoV-2 = conditions: cited from earlier work

T2 sequence (P07237 18-508): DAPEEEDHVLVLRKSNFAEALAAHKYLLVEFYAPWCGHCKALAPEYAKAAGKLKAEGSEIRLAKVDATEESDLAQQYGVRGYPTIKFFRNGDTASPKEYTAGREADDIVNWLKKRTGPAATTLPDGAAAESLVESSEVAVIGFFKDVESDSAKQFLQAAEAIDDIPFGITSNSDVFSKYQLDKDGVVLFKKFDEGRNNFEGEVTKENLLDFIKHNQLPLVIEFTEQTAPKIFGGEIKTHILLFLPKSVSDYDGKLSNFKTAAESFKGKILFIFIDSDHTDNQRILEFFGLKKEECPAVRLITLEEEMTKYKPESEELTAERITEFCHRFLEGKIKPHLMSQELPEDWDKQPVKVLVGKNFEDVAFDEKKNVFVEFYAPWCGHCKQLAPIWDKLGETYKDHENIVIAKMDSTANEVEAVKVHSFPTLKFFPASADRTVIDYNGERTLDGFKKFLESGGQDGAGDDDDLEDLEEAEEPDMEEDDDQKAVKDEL

Substance: 1,2,3,4,6-pentagalloylglucose [Pentagalloyl-glucose]
- IC50 (SARS-CoV-2 M^pro [1]): 25 µM
- inhibition of thiol isomerases (PDI, ERp57, ERp5) in words [2]: potently inhibited all thiol isomerases tested
- Modeling shows gallic acid interaction with His41 or Glu166 (SARS-CoV-2 M^pro [3]): occludes His41;; also recorded: reacts with Glu166
- inhibition of isolated a′ domain cleavage of di-eosin-GSSG [4]: inhibited the ability of isolated a′ domain to cleave di-eosin-GSSG
- inhibition of the ability of PDI to reduce insulin (PDI [5]): inhibited the ability of PDI to reduce insulin
- IC50 (PDI [6]): 2.9 µM
- antiplatelet activities (platelets): have antiplatelet activities
- IC50 (SARS-CoV-2; Vero Cells, read-out: Inhibition of viral replication IC50): 15 µM
- inhibition of SARS-CoV-2 / infection (in words) (SARS-CoV-2): inhibits SARS-CoV-2 viral infection in culture
